The values below come from patent EP0369733A2, “Fluorescent indicator dyes for alkali metal cations, their preparation and use” (THE REGENTS OF THE UNIVERSITY OF CALIFORNIA, priority 1988, dated 1990).

The term Kd denotes the concentration at which binding is half-saturated. For orientation: pKa means the pH at which an ionisable group is half protonated. Read a high pKa as a weaker acid or stronger base.

Structures are written as SMILES. “And” between values parts separate entries of the source, which are not always exact repeats. Equal entries are not always repeated.

The nature of data set [1]: UV absorbance spectra without and with saturating cation. The conditions noted are these: for Absorbance maxima -Na⁺ (wavelength): 100 mM tetramethylammonium chloride plus 1-5 mM Tris; for Absorbance maxima -Na⁺ (wavelength) / Absorbance maxima -Na⁺ (extinction coefficient): no Na⁺; for Absorbance maxima +Na⁺ (wavelength): enough NaCl added (0.2-1 M) to saturate the Na⁺ binding; for Absorbance maxima -Na⁺ (extinction coefficient) / Absorbance maxima +Na⁺ (extinction coefficient): number is 10⁻³ x the extinction coefficient; for Absorbance maxima -Na⁺ (extinction coefficient): lower limits for most compounds; for Absorbance maxima +Na⁺ (extinction coefficient): lower limits, saturating NaCl (0.2-1 M). It is filed as physicochemical. The protocol:
(§1) • Footnote a: For molecular structures, see Fig. 1. • Footnote b: Except where otherwise noted, these dissociation constants were measured with the chelator dissolved in 0.1 M tetramethylammonium chloride, at a pH held high enough with 1-5 mM tris(hydroxymethyl)aminomethane for protonation to be insignificant. The absorbance spectrum, or the fluorescence excitation spectrum for those compounds (2GG, 2NN, 2OO, 2PP, 3NN) with acronyms was measured as a function of the concentration of cation added as a solid or concentrated aqueous solution of the halide salt. No correction has been made for the changing ionic strength of the solution, which started from 0.1 M and increased, but the absorbances and fluorescence amplitudes were applied for dilution of the dye and any slight quenching due to high concentrations of Cl⁻. • Footnote c: These protonation constants were determined in 0.1 M tetramethylammonium chloride, 10 mM tris(hydroxymethyl)aminomethane, titrated with 5 M H₃PO₄ to successively lower pH values measured with a Radiometer PHM84 meter. […] The first number is the wavelength in nanometers, followed in parentheses by 10⁻³ x the corresponding extinction coefficient, M⁻¹cm⁻¹. […] Emission maxima are not corrected for the spectral sensitivity of the emission detection. Quantum efficiencies were measured (13) by comparing the integral of the corrected emission spectrum with the corresponding integral for a solution of quinine bisulfate in 1 N H₂SO₄ of matched absorbance at the excitation wavelength.
(§2) UV absorbance spectra were recorded initially on a Cary 210 and later on a Perkin-Elmer Lambda Array 3840 spectrophotometer. Fluorescence excitation and emission spectra and quantum efficiencies were measured on a Spex Fluorolog 111 as described previously (13).

Data set [2] in a line: Fluorescence excitation/emission spectra and quantum efficiency. It is filed as physicochemical. Particulars: for Emission maxima -Na⁺: 100 mM tetramethylammonium chloride; for Emission maxima -Na⁺ / Quantum efficiency -Na⁺: no Na⁺; for Emission maxima -Na⁺ / Emission maxima +Na⁺: not corrected for detector sensitivity; for Emission maxima +Na⁺: saturating NaCl; for Quantum efficiency -Na⁺ / Quantum efficiency +Na⁺: relative to quinine bisulfate in 1 N H₂SO₄ (0.55); for Quantum efficiency +Na⁺: saturating Na⁺; for fluorescence quantum yield: ±Na⁺ not specified. The protocol:
as §1, §2

Data set [3] is described as follows: Cation titration followed by absorbance or fluorescence excitation spectra: Na⁺ binding. Particulars: for Kd: read-out: Dissociation constants (Kd) in mM for Na⁺. The protocol: as §1
(§3) Affinities for other cations were usually measured by titrating aqueous solutions of the indicator with metal chlorides added either as solid or from concentrated stock solutions, taking care to minimize dilution and correct for it. A convenient way to mass-produce premeasured micromole to millimole aliquots of solid NaCl or KCl was to pipet saline solutions into polypropylene micro test tubes and evaporate the water in an oven. The standard ionic background was again 100 mM tetramethylammonium chloride, usually with a few mM of tris(hydroxymethyl)-aminomethane base to hold the pH high enough (pH 8-9) to insure that protonation was negligible. This convenient titration procedure had the slight disadvantage that the ionic strength was not constant, especially when large quantities of a salt had to be added due to weak affinities. […] When constant ionic strength was desired, the chelator was made up at identical concentrations in matched solutions of NaCl, KCl, or tetramethylammonium chloride, then these stocks were mixed in the desired proportions. All measurements were made at room temperature (22°, ±2° C).

Data set [4] can be described thus: physchem. Particulars: 0.1 m tetramethylammonium chloride.
Procedure: (§4) • Footnote a: For molecular structures, see Fig. 1. • Footnote b: Except where otherwise noted, these dissociation constants were measured with the chelator dissolved in 0.1 M tetramethylammonium chloride, at a pH held high enough with 1-5 mM tris(hydroxymethyl)aminomethane for protonation to be insignificant. […] No correction has been made for the changing ionic strength of the solution, which started from 0.1 M and increased, but the absorbances and fluorescence amplitudes were applied for dilution of the dye and any slight quenching due to high concentrations of Cl⁻. • Footnote c: These protonation constants were determined in 0.1 M tetramethylammonium chloride, 10 mM tris(hydroxymethyl)aminomethane, titrated with 5 M H₃PO₄ to successively lower pH values measured with a Radiometer PHM84 meter.
(§5) Proton dissociation constants of the chelators were measured by spectrophotometry or spectrofluorometry of buffered solutions, containing either 100 mM tetramethylammonium chloride as inert supporting electrolyte, or 121.5 mM K⁺, 13.5 mM Na⁺, and 1 mM Mg²⁺ to simulate the cation environment of vertebrate cytoplasm (14). Traces of UV-absorbing impurities in the tetramethylammonium chloride (Alfa Inorganics) were removed by filtration through acid-­washed activated charcoal. The concentration of the tetramethylammonium chloride was then measured by chloride titration, and the absence of significant Na⁺ contamination was verified with a sodium-selective glass electrode (Microelectrodes Inc.). When the chelators contained two protonatable nitrogens, the curve of absorbance or fluorescence versus pH was analyzed by computerized least-squares fitting to the equations for two arbitrary proton equilibria (15), with the added assumption that the two protonations each caused the same change in extinction coefficient or fluorescence.
Data set [5] is described as follows: Proton dissociation constants in 0.1 M tetramethylammonium chloride. The conditions noted are these: second value (second protonation), 10 mM Tris titrated with 5 M H₃PO₄.
Procedure: as §4, §5
Data set [6] is described as follows: Cation titration followed by absorbance or fluorescence excitation spectra: Li⁺ binding. Particulars: 0.1 M tetramethylammonium chloride, 1-5 mM tris(hydroxymethyl)aminomethane, high pH; read-out: Dissociation constants (Kd) in mM for Li⁺. The protocol:
as §1, §3

The nature of data set [7]: Cation titration followed by absorbance or fluorescence excitation spectra: Ca²⁺ binding. Particulars: 0.1 M tetramethylammonium chloride, 1-5 mM tris(hydroxymethyl)aminomethane, high pH; read-out: Dissociation constants (Kd) in mM for Ca²⁺. The method, then:
as §1, §3

Data set [8] is described as follows: Cation titration followed by absorbance or fluorescence excitation spectra: Mg²⁺ binding. Particulars: 0.1 M tetramethylammonium chloride, 1-5 mM tris(hydroxymethyl)aminomethane, high pH; read-out: Dissociation constants (Kd) in mM for Mg²⁺. The method, then: as §1
as §3, with “proportions.” for “proportions. All measurements were made at room temperature (22°, ±2° C).”

Setting [9] is: 0.1 M tetramethylammonium chloride, 1-5 mM tris(hydroxymethyl)aminomethane, pH high enough for protonation to be insignificant, 22°.
The mark [10] stands for this setting: association constant, inert background cation (tetramethylammonium).
Setting [11] is: footnote h: 3.0 M ionic strength (3.0 M NaCl mixed with 3.0 M tetramethylammonium chloride).

`Cc1ccc2cc(O)cc(N3CCOCCOCCN(c4cc(O)cc5ccc(C)nc45)CCOCC3)c2n1` [Compound 2FF, N,N-bis-(6-hydroxy-2-methyl-8-quinolinyl)-diaza[15]-crown-5]: in data set [1], the “Absorbance maxima -Na⁺ (wavelength)” value amounted to 363 nanometers, the “Absorbance maxima +Na⁺ (wavelength)” value was found to be 362 nanometers, the Absorbance maxima -Na⁺ (extinction coefficient) was 2400 M⁻¹ cm⁻¹ and the Absorbance maxima +Na⁺ (extinction coefficient) amounted to 2300 M⁻¹ cm⁻¹. Moreover, in data set [2], the “Emission maxima -Na⁺” value is reported as 497 nanometers and the “Emission maxima +Na⁺” value is 466 nanometers. Also, the Kd in data set [3] (setting [9]) was determined as 8.9 mM.

On to `Nc1ccc(N2CCOCCOCCOCCOCC2)c(C(=O)O)c1` [Compound 1B, N-(4-amino-2-carboxyphenyl)-aza[15]-crown-5], for which, in data set [1], the “Absorbance maxima -Na⁺ (wavelength)” value stood at 295 nanometers, the “Absorbance maxima +Na⁺ (wavelength)” value was determined as 296 nanometers, the Absorbance maxima -Na⁺ (extinction coefficient) turned out to be 1100 M⁻¹ cm⁻¹ and the Absorbance maxima +Na⁺ (extinction coefficient) was 1100 M⁻¹ cm⁻¹. Besides, the Kd in data set [3] (setting [9]) was found to be 71 mM. Moreover, in data set [3] (setting [10]), the “Na⁺ affinity” value is given as 14 M⁻¹. In data set [4], this compound yielded a pKa of 9.21.

As to `CC(=O)Nc1ccc(N2CCOCCOCCN(c3ccc(NC(C)=O)c4ccc(C)nc34)CCOCC2)c2nc(C)ccc12` [Compound 2DD, N,N-bis-(5-acetamido-2-methyl-8-quinolinyl)-diaza[15]-crown-5], in data set [1] (listed as 2DO), the “Absorbance maxima -Na⁺ (wavelength)” value was 344 nanometers and 256 nanometers; the “Absorbance maxima +Na⁺ (wavelength)” value is 306 nanometers and 237 nanometers. In addition, in data set [2], the “Emission maxima -Na⁺” value is reported as 525 nanometers, the “Quantum efficiency -Na⁺” value is listed as “.01”, the “Emission maxima +Na⁺” value is given as 510 nanometers and the “Quantum efficiency +Na⁺” value was “.01”. In data set [2], this compound yielded a fluorescence quantum yield of 0.01. The Kd in data set [3] (setting [9]) stood at 9.4 mM. Besides, the Kd in data set [3] (setting [11]) was 4.4 mM. Also, the “Na⁺ affinity relative to 2CC” value in data set [3] (fraction of the affinity of 2CC retained) was “more than half”. The compound further registered a pKa in data set [5] of 5.62. The pKa in data set [4] worked out at 7.55.

For `O=C(O)CCC(=O)Nc1ccc(N2CCOCCOCCN(c3ccc(NC(=O)CCC(=O)O)c4cc5ccccc5nc34)CCOCC2)c2nc3ccccc3cc12` [Compound 2II, N,N-bis-(1-succinamidoacridin-4-yl)-diaza[15]-crown-5], in data set [1], the “Absorbance maxima -Na⁺ (wavelength)” value is 414 nanometers and 359 nanometers and 244 nanometers; the “Absorbance maxima +Na⁺ (wavelength)” value is 360 nanometers and 251 nanometers. For the same compound, in data set [2], the “Emission maxima -Na⁺” value was found to be 480 nanometers, the “Quantum efficiency -Na⁺” value is “<.001”, the “Emission maxima +Na⁺” value came out at 625 nanometers and the “Quantum efficiency +Na⁺” value is reported as “<.001”. Also, in data set [2], the fluorescence quantum yield result is on record as “very poor”. Further, the Kd in data set [3] (setting [9]) turned out to be 0.32 mM. Further, the “Na⁺ affinity” value in data set [3] (setting [10]) is given as 3125 M⁻¹. In data set [3] (setting [11]), the Kd was 0.4 mM. For the same compound, the “Na⁺:K⁺ selectivity” value in data set [3] (ratio of Na⁺ to K⁺ affinity) was > 500. Moreover, in data set [5], the pKa is 6.86. The compound further came in with a pKa in data set [4] of 8.19. For the same compound, in data set [6], the Kd stood at 11.5 mM.

With `Cc1ccc2c(n1)c(N1CCOCCOCCN(c3cc4oc(-c5ccc(C(=O)O)c(C(=O)O)c5)cc4c4ccc(C)nc34)CCOCC1)cc1oc(-c3ccc(C(=O)O)c(C(=O)O)c3)cc12` [Compound 2GG, N,N-bis(2-(3,4-dicarboxyphenyl)-7-methylfuro [3,2-f]quinolin-5-yl)-diaza[15]-crown-5], in data set [1] (listed as 2GG (SQFP)), the “Absorbance maxima -Na⁺ (wavelength)” value was 373 nanometers and 308 nanometers; the “Absorbance maxima +Na⁺ (wavelength)” value was 362 nanometers and 307 nanometers; the Absorbance maxima -Na⁺ (extinction coefficient) is 24000 M⁻¹ cm⁻¹ and 22000 M⁻¹ cm⁻¹; the Absorbance maxima +Na⁺ (extinction coefficient) is 31000 M⁻¹ cm⁻¹ and 28000 M⁻¹ cm⁻¹. Besides, in data set [2], the “Emission maxima -Na⁺” value worked out at 486 nanometers, the “Quantum efficiency -Na⁺” value is reported as “.005”, the “Emission maxima +Na⁺” value came to 525 nanometers and the “Quantum efficiency +Na⁺” value was “.01”. Moreover, in data set [3] (setting [9]), the Kd was 4.7 mM. Further, in data set [5], the pKa is listed as 6.8. The same compound showed a pKa in data set [4] of 7.9.

As for `COc1ccc(OC)c(N2CCOCCOCCN(c3cc(OC)ccc3OC)CCOCC2)c1` [Compound 2LL, N,N-bis-(2,5-dimethoxyphenyl)-diaza[15]-crown-5], in data set [1], the “Absorbance maxima -Na⁺ (wavelength)” value is 295 nanometers and 213 nanometers; the “Absorbance maxima +Na⁺ (wavelength)” value worked out at 291 nanometers; the Absorbance maxima +Na⁺ (extinction coefficient) was 4000 M⁻¹ cm⁻¹. The Kd in data set [3] (setting [9]) fell in the range of 10 to 20 mM.

With `COc1cc(NC(C)=O)ccc1N1CCOCCOCCN(c2ccc(NC(C)=O)cc2OC)CCOCC1` [Compound 2JJ, N,N-bis-(4-acetamido-2-methoxyphenyl)-diaza[15]-crown-5], the Kd in data set [7] is > 100 mM; in data set [8], > 100 mM; in data set [3] (setting [9]), 12 mM; in data set [6], 72 mM. In addition, the “Absorbance maxima -Na⁺ (wavelength)” value in data set [1] is 261 nanometers. In addition, in data set [1], the “Absorbance maxima +Na⁺ (wavelength)” value is 280 nanometers and 249 nanometers. Besides, the Absorbance maxima -Na⁺ (extinction coefficient) in data set [1] is 10800 M⁻¹ cm⁻¹. In addition, in data set [1], the Absorbance maxima +Na⁺ (extinction coefficient) was 5400 M⁻¹ cm⁻¹ and 10700 M⁻¹ cm⁻¹. Besides, the “Na⁺ affinity” value in data set [3] (at I = 0.15) was 83 M⁻¹. Also, the pKa in data set [5] is 5.0; in data set [4] it was 6.31.

Regarding `CC(=O)Nc1ccc(N2CCOCCOCCOCCOCC2)c2ncccc12` [Compound 1C, N-(5-acetamido-8-quinolinyl)-aza[15]-crown-5], the dissociation constant (Kd) is 10 mM in data set [7], 12 mM in data set [8], 67 mM in data set [3] (setting [9]) and 63 mM in data set [6]. The “Absorbance maxima -Na⁺ (wavelength)” value in data set [1] was 349 nanometers and 252 nanometers. The “Absorbance maxima +Na⁺ (wavelength)” value in data set [1] is 304 nanometers and 229 nanometers. In addition, the “Na⁺ affinity” value in data set [3] (setting [10]) came to 15 M⁻¹. The pKa in data set [4] is < 7.
